Assay results published in patent US4932871A, “Rapid method for preparing chromogenic alpha-amylase substrate compounds at high preparative yields” (Miles Inc., priority 1987, dated 1990).
“And” between values parts separate entries of the source, which are not always exact repeats. Equal entries are not always repeated.

How the values were obtained:
[1] = Solubility in phosphate buffered solution; type: physicochemical; details: phosphate buffered solution (pH 7.4)
From the text: The resulting glucoside has an absorbance (λmax) of 438 nm (yellow), an extinction coefficient of 27,400, and is soluble in a phosphate buffered solution (pH 7.4). […] Accordingly, such compound provides a very advantageous substrate for a secondary enzyme, such as β-D-glucosidase, in an assay system for α-amylase.

β-D-glucosidase = experiment: Hydrolysis of the glucoside substrate by β-D-glucosidase (Kcat, Km); type: biochemical; details: 50 mM phosphate buffered solution (pH 7.4) containing 5.0 mM MgCl2
α-amylase [2] = experiment: Analytical test device for the detection of α-amylase (filter paper impregnated with DMA-G7 reagent); type: biochemical; details: between 180 and 200 seconds, three aliquots
Experimental: A sheet of Whatman 54 filter paper (Whatman, Inc., Clifton, N.J., USA) was immersed into a solution comprising the liquid α-amylase detection reagent prepared according to Example 3, 0.1% Triton X-100 (Sigma Chemical Co., St. Louis, Mo., USA) and 0.5% carboxycellulose, and dried.
Analytical test devices were prepared by mounting 0.5 cm wide ×1.0 cm long segment of the aforementioned impregnated filter paper onto and along the edge of one surface of 0.5 cm×8.125 cm polystyrene supports (Tricite®, Dow Chemical Co., Midland, Mich., USA) previously laminated with a 2 mm strip of Double Stick® double-faced adhesive tape (3M Company, St. Paul, Minn., USA).
Three 30 μL aliquots of undiluted serum containing 39 IU/L, 78 IU/L, 117 IU/L, 157 IU/L, 235 IU/L, and 313 IU/L, respectively, of α-amylase were applied, independently, to a test device and the rate of color change produced by the liberated chromogen on each device was measured at 630 nm on a Seralyzer® reflectance photometer (Miles Inc., Elkhart, Ind., USA) from between 0 seconds and 240 seconds after the serum sample was added to each test device.

α-amylase [3] = experiment: Liquid analytical test system for the detection of α-amylase (DMA-G7, α-glucosidase, β-glucosidase); type: biochemical; details: average of three consecutive readings between 3 and 6 minutes
Experimental: A liquid α-amylase detection reagent was prepared by combining 1.8 mM DMA-G7 prepared according to Example 2, 38 units of α-glucosidase and 20 units of β-glucosidase in 1.0 mL of buffered solution comprising 50 mM PIPES, 50 mM NaCl, and 5.0 mM calcium chloride (pH 7.0). Amylase control serum (0.025 mL) containing 37 IU/L, 175 IU/L, and 313 IU/L, respectively, of α-amylase were added to the detection reagent, independently, and incubated at 37° C. The enzymatic action of α-amylase on the substrate compound in each of the mixtures liberated the shorter chain chromogenic maltooligosaccharide compounds thereof (e.g., DMA-G2 to DMA-G4) which, in turn, were enzymatically acted upon by the α-glucosidase and β-glucosidaseto liberate the optically active form or anion of the 7-hydroxy-9,9-dimethyl- 9H-acridin-2-one chromogen. The rate of color change produced by the liberated chromogen in each of the mixtures was measured at 634 nm on a Cary 219 spectrophotometer (Varian Associates, Inc., Sonnyvale, Calif., USA) from between 1 and 9 minutes after each of the serum samples were added to the detection reagent (Table 2/FIG. 4).

| Compound | solubility [1] | rate at which the enzyme cleaves the substrate (Kcat) (β-D-glucosidase) | Km (β-D-glucosidase; read-out: binding constant (Km)) [µM] | Reactivity (linear regression of L(R), reflectance at 630 nm) (α-amylase [2]; 39 IU/L α-amylase in undiluted serum) | Reactivity (linear regression of L(R), reflectance at 630 nm) (α-amylase [2]; 78 IU/L α-amylase in undiluted serum) | Reactivity (linear regression of L(R), reflectance at 630 nm) (α-amylase [2]; 117 IU/L α-amylase in undiluted serum) | Reactivity (linear regression of L(R), reflectance at 630 nm) (α-amylase [2]; 157 IU/L α-amylase in undiluted serum) | Reactivity (linear regression of L(R), reflectance at 630 nm) (α-amylase [2]; 235 IU/L α-amylase in undiluted serum) | Reactivity (linear regression of L(R), reflectance at 630 nm) (α-amylase [2]; 313 IU/L α-amylase in undiluted serum) | α-amylase reactivity, rate of color change at 634 nm (α-amylase [3]; 37 IU/L α-amylase) [Absorbance/Minute] | α-amylase reactivity, rate of color change at 634 nm (α-amylase [3]; 175 IU/L α-amylase) [Absorbance/Minute] | α-amylase reactivity, rate of color change at 634 nm (α-amylase [3]; 313 IU/L α-amylase) [Absorbance/Minute] |
| --- | --- | --- | --- | --- | --- | --- | --- | --- | --- | --- | --- | --- |
| CC1(C)C2=CC(=O)C=CC2=Nc2ccc(O[C@@H]3O[C@H](CO)[C@@H](O)[C@H](O)[C@H]3O)cc21 [DMA-G1, 7-β-D-glucopyranosyloxy-9,9-dimethyl-9H-acridin-2-one] | soluble | 1.32×10^4 mol min.^-1 /mol. active site | 170 |  |  |  |  |  |  |  |  |  |
| CC1(C)C2=CC(=O)C=CC2=Nc2ccc(O[C@@H]3O[C@H](CO)[C@@H](O[C@H]4O[C@H](CO)[C@@H](O[C@H]5O[C@H](CO)[C@@H](O[C@H]6O[C@H](CO)[C@@H](O[C@H]7O[C@H](CO)[C@@H](O[C@H]8O[C@H](CO)[C@@H](O[C@H]9O[C@H](CO)[C@@H](O)[C@H](O)[C@H]9O)[C@H](O)[C@H]8O)[C@H](O)[C@H]7O)[C@H](O)[C@H]6O)[C@H](O)[C@H]5O)[C@H](O)[C@H]4O)[C@H](O)[C@H]3O)cc21 [DMA-G7, 7-β-maltoheptaosyloxy-9,9-dimethyl-acridin-2-one] |  |  |  | 0.384 × 10^-2 and 0.373 × 10^-2 and 0.359 × 10^-2 | 0.957 × 10^-2 and 0.941 × 10^-2 and 0.954 × 10^-2 | 1.450 × 10^-2 and 1.510 × 10^-2 and 1.430 × 10^-2 | 1.781 × 10^-2 and 1.999 × 10^-2 and 1.886 × 10^-2 | 2.560 × 10^-2 and 2.596 × 10^-2 and 2.610 × 10^-2 | 2.961 × 10^-2 and 2.989 × 10^-2 and 2.916 × 10^-2 | 0.011 | 0.062 | 0.109 |
| CC1(C)C2=CC(=O)C=CC2=Nc2ccc(O)cc21 [liberated chromogen anion, 7-hydroxy-9,9-dimethyl-9H-acridin-2-one] | soluble |  |  |  |  |  |  |  |  |  |  |  |
